Reference: patent US6750256B1, “Use of aromatic aldehydes as insecticides” (Proguard, Inc., priority 1994, dated 2004)

Tests used:
human subjects [1] = conditions: 12% in petrolatum; 48 hour closed-patch test on human subjects; cited from earlier work
rats = conditions: cited from earlier work
human subjects [2] = conditions: 20% in diethylphthalate; 100 human subjects; cited from earlier work
[3] = at 25° C.; cited from earlier work
[4] = tested on: thrips insects (Frankliniella occidentalis); assay: Residual activity on treated filter paper against thrips; format: in vivo; conditions: rehydrated 24 and 72 hours after spraying, thrips exposed one hour
Protocol: In the first experiment, two ml of two concentrations of CNMA (0.3 and 1%) were sprayed on filter paper (Whatman). As a negative control, two ml of water was also sprayed on filter paper. Twenty-four hours later, two ml of water were sprayed on treatment and control filter paper, which were then dried for 30 min. Approximately 30 thrips insects (Frankliniella occidentalis) were introduced onto the treated filter papers and the number of F. occidentalis were observed after one hour. Mean mortality was calculated for each treatment. After 72 hours, the treated filter papers were flipped over and only the negative control filter paper and the filter paper treated with 1% CNMA were sprayed with 2 ml of water and allowed to dry for 30 minutes. Approximately 30 thrips were introduced onto the two treated filter papers and after one hour the number of dead F. occidentalis were observed and the mean mortality calculated for each treatment. A similar assay was conducted using AHCNMA. Mean mortality was higher for rehydrated filter papers compared to non-rehydrated filter papers over time.

[5] = cited from earlier work
[6] = tested on: cat flea (Ctenocepalides felis); assay: Cat flea contact treatment on sprayed carpet plugs; format: in vivo; conditions: 72 hours
Protocol: The treatment of cat flea (Ctenocepalides felis) with various formulations containing alpha hexyl cinnamaldehyde is tested as follows. In a double blind experiment, variable concentrations of the formulae were tested for activity against cat flea (Ctenocepalides felis). The initial experiments tested alpha hexyl cinnamaldehyde at concentrations of 5%, 10% and 20% in 6% Tween 80. As controls, a formula blank containing 6% Tween 80 and negative control with no formulae were tested. Fleas were put in direct contact with the formulae and mortality was assessed both visually and by probing at 72 hours after contact.
Approximately […] of each formula concentration was sprayed on 0.279 square meter carpet section (DuPont) at 20 PSI. After allowing to air dry (20 minutes), four plugs each 14 cm in diameter were cut from each treated carpet section. One plug was used for each replicate for four total replications. For each treatment and replicate, 25 fleas were introduced on each plug. Plugs were then rolled and put in an escape proof, ventilated 2 liter container. After 72 hours mortality was assessed.

[7] = tested on: Adult human lice (Pediculus humanus); format: in vivo; conditions: 2% in water, lice submerged 1, 4 or 10 minutes
Protocol: Adult human lice (Pediculus humanus) were treated with α-butyl cinnamic aldehyde to determine its pediculicidal activity. […] For each of four replicates, 25 mixed sex lice were placed in a 9 dram plastic vial and covered with a screened plunger to keep the lice from floating to the surface. The vial containing the lice was dipped into a 100 ml beaker containing 2% α-butyl cinnamic aldehyde, which was dissolved in water or distilled water as a negative control. Lice were submerged in the 2% α-butyl cinnamic aldehyde for 1, 4 or 10 minutes. After this time, the test container was removed from the treatment, submerged in a 1000 mL beaker containing distilled water (32° C.) from a wash bottle. Subsequently, lice were allowed to recover in an incubator maintained at 31.7° C. in 60% RH (relative humidity) for 1 hour. Following the recovery period, lice were examined for their ability to move toward heat. For this observation, the lice were placed on a patch which was placed on a second patch that was on top of a slide warmer maintained at 37° C. Lice not dead or morbid (unable to move towards heat 1 hour after treatment; sickly, but not necessarily dying; may recover by 24 hours), will move to the lower patch. Lice again were examined for their ability to move towards 24 hours later. […]

[8] = tested on: two-spotted spider mite, Tetranychus urticae; assay: Spider mite treated petri dish contact bioassay; format: in vivo; conditions: positive control, 10 ppm; 24 hours contact
Protocol: Activity of cinnamic aldehyde and/or coniferyl aldehyde against two-spotted spider mite, Tetranychus urticae is determined as follows. In a double blind experiment, intersurfaces of petri dishes (60 mm diameter) were treated with 100 μl of a test formulation and allowed to air dry and used within the hour. Twenty adult spider mites were put in each dish and the percent of mortality of the spider mites after 24 hours in contact with the treated dishes Was determined.

For CCCCCCC(C=O)=Cc1ccccc1 [HCA, 2-(phenylmethylene) octanal], the irritation (human subjects [1]) is listed as “no irritation”, the “oral LD50” value (rats) is listed as 3.1 g/kg and the “reactions in repeated insult patch test” value (human subjects [2]) is listed as “no positive reactions”. The vapor pressure [3] was 70×10^−5 mm Hg, the “residual activity in words” value [4] was “residual activity” and the “dermal LD50” value [5] was “greater than 3 g/kg”. The “Percent Mortality” value ([6]; 5% wt/vol in 6% Tween 80) was 84%, the “Percent Mortality” value ([6]; 10% wt/vol in 6% Tween 80) was 92% and the “Percent Mortality” value ([6]; 20% wt/vol in 6% Tween 80) was 86%. The flea mortality ([6]; all treatments (5%, 10% and 20% in 6% Tween 80)) was “greater than 80%”.
In the case of CCN(CC)c1cccc(C)c1 [N,N-diethyl-m-toluamine, reference compound], the vapor pressure [3] is listed as 167×10^−5 mm Hg.
With CCCCC(C=O)=Cc1ccccc1 [α-butyl cinnamic aldehyde] the mortality ([7]; at 24 hours) was 98.6% and the knockdown ([7]; at the 1 hour time point) was 100%.
With CNC(=O)Oc1cccc2ccccc12 [Sevin, reference compound] the “Percent Mortality (24 hours)” value [8] was 100%.
